How the values were obtained:
[1] = RCM, 10 mol% Ru catalyst 1 (Grubbs I), quenched with ethyl vinyl ether; conditions: DCE, 2.0 mM, 40.0 °C, 4.0 h
[2] = RCM, 10 mol% Ru catalyst 2 (Grubbs II), quenched with ethyl vinyl ether; conditions: DCE, 2.0 mM, 40.0 °C, 4.0 h
[3] = RCM, 10 mol% Ru catalyst 3 (Hoveyda-Grubbs II), quenched with ethyl vinyl ether; conditions: DCE, 2.0 mM, 40.0 °C, 4.0 h
[4] = RCM, 10 mol% Ru catalyst 4 (nitro-Hoveyda/Grela), quenched with ethyl vinyl ether; conditions: DCE, 2.0 mM, 40.0 °C, 4.0 h
[5] = RCM, 10 mol% Ru catalyst 5 (o-tolyl NHC Hoveyda type), quenched with ethyl vinyl ether; conditions: DCE, 2.0 mM, 40.0 °C, 4.0 h
[6] = RCM, 10 mol% Z-selective cyclometalated Ru catalyst 6 (Mes), quenched with ethyl vinyl ether; conditions: DCE, 2.0 mM, 40.0 °C, 4.0 h
[7] = RCM, 10 mol% Z-selective cyclometalated Ru catalyst 7 (Dipp), quenched with ethyl vinyl ether; conditions: DCE, 2.0 mM, 40.0 °C, 4.0 h
[8] = on-resin RCM stapling (Rink amide MBHA), 16 mol% Ru catalyst 1 (Grubbs I), then TFA/TIS/H2O cleavage; conditions: the molecule shown is the open-chain precursor, DCE, 40.0 °C
[9] = on-resin RCM stapling (Rink amide MBHA), 16 mol% Ru catalyst 2 (Grubbs II), then TFA/TIS/H2O cleavage; conditions: the molecule shown is the open-chain precursor, DCE, 40.0 °C
[10] = on-resin RCM stapling (Rink amide MBHA), 16 mol% Z-selective Ru catalyst 6 (Mes), then TFA/TIS/H2O cleavage; conditions: the molecule shown is the open-chain precursor, DCE, 40.0 °C
[11] = on-resin RCM stapling (Rink amide MBHA), 16 mol% Z-selective Ru catalyst 7 (Dipp), then TFA/TIS/H2O cleavage; conditions: the molecule shown is the open-chain precursor, DCE, 40.0 °C
[12] = on-resin RCM stapling (Rink amide MBHA), 16 mol% Ru catalyst 3 (Hoveyda-Grubbs II), then TFA/TIS/H2O cleavage; conditions: the molecule shown is the open-chain precursor, DCE, 40.0 °C
[13] = on-resin RCM stapling (Rink amide MBHA), 16 mol% Ru catalyst 4 (nitro-Hoveyda/Grela), then TFA/TIS/H2O cleavage; conditions: the molecule shown is the open-chain precursor, DCE, 40.0 °C
[14] = on-resin RCM stapling (Rink amide MBHA), 16 mol% Ru catalyst 5 (o-tolyl NHC Hoveyda type), then TFA/TIS/H2O cleavage; conditions: the molecule shown is the open-chain precursor, DCE, 40.0 °C
[15] = from C=CCOc1ccc(C[C@H](NC(=O)OC(C)(C)C)C(=O)N[C@@H](CC(C)C)C(=O)N[C@@H](CC=C)C(=O)OC)cc1, 17-membered ring
[16] = from C=CC[C@H](NC(=O)OC(C)(C)C)C(=O)N[C@@H](Cc1cn(S(=O)(=O)c2ccc(C)cc2)cn1)C(=O)NCC(=O)N[C@@H](CC=C)C(=O)OC, 14-membered ring
[17] = from C=CCSC[C@H](NC(=O)OC(C)(C)C)C(=O)N[C@@H](CC(C)C)C(=O)N[C@@H](CC(C)C)C(=O)N[C@@H](CSCC=C)C(=O)OC, 18-membered ring
[18] = from C=CCCOc1ccc(C[C@H](NC(=O)OC(C)(C)C)C(=O)N[C@@H](CC(C)C)C(=O)N[C@@H](CCC=C)C(=O)OC)cc1, 19-membered ring
[19] = from C=CC[C@H](NC(=O)CNC(=O)[C@@H]1CCCN1C(=O)[C@H](CC=C)NC(=O)OC(C)(C)C)C(=O)OC, 14-membered ring
[20] = from C=CCCOc1ccc(C[C@H](NC(=O)OC(C)(C)C)C(=O)N[C@@H](CC(C)C)C(=O)N[C@@H](CC=C)C(=O)OC)cc1, 18-membered ring
[21] = from C=CC[C@H](NC(=O)OC(C)(C)C)C(=O)N[C@@H](CC(C)C)C(=O)N[C@@H](CC(C)C)C(=O)N[C@@H](CC=C)C(=O)OCc1ccccc1, 14-membered ring
[22] = from C=CCOC[C@H](NC(=O)OC(C)(C)C)C(=O)N[C@@H](CC(C)C)C(=O)N[C@@H](CC(C)C)C(=O)N[C@@H](COCC=C)C(=O)OC, 18-membered ring

Work on `COC(=O)[C@@H]1CC=CCOc2ccc(cc2)C[C@H](NC(=O)OC(C)(C)C)C(=O)N[C@@H](CC(C)C)C(=O)N1` [Boc-Tyr(O-allyl)-Leu-allylGly-OMe] yielded a ring closure, isolated yield [1, 15] of 58%, a ring closure, isolated yield [2, 15] of 71% and a ring closure, isolated yield [3, 15] of 63%. For the same compound, the ring closure, isolated yield [4, 15] was 66%, the ring closure, isolated yield [5, 15] was 45% and the ring closure, isolated yield [6, 15] was 47%. It also gave a ring closure, isolated yield [7, 15] of 41%.

With `COC(=O)[C@@H]1CC=CC[C@H](NC(=O)OC(C)(C)C)C(=O)N[C@@H](Cc2cn(S(=O)(=O)c3ccc(C)cc3)cn2)C(=O)NCC(=O)N1` [Boc-allylGly-His(Tos)-Gly-allylGly-OMe] the ring closure, isolated yield [1, 16] was 14%, the ring closure, isolated yield [2, 16] was 18% and the ring closure, isolated yield [3, 16] was < 10%. For the same compound, the ring closure, isolated yield [4, 16] was 12% and the ring closure, isolated yield [5, 16] was < 5%.

`C=CCCC[C@](C)(NC(=O)[C@H](Cc1ccccc1)NC(=O)[C@@H](NC(=O)[C@H](Cc1c[nH]cn1)NC(=O)[C@](C)(CCCC=C)NC(=O)[C@H](CCCNC(=N)N)NC(=O)[C@H](CCC(=O)O)NC(=O)[C@H](CC(C)C)NC(=O)[C@H](CCC(=O)O)NC(=O)[C@H](C)NC(=O)OCC1c2ccccc2-c2ccccc21)[C@@H](C)O)C(=O)N[C@@H](CC(C)C)C(=O)N[C@@H](Cc1c[nH]cn1)C(=O)N[C@@H](CCC(N)=O)C(=O)N[C@@H](CCCNC(=N)N)C(N)=O` gave a ring closure, conversion by HPLC ([8]; 21-membered ring) of 93%.

With “Fmoc-Ala-Glu-Leu-Glu-Arg-S5-His-Thr-Phe-S5-Leu-His-Gln-Arg-NH-resin” the ring closure, conversion by HPLC ([9]; 21-membered ring) was 85%, the ring closure, conversion by HPLC ([10]; 21-membered ring) was 80% and the ring closure, conversion by HPLC ([11]; 21-membered ring) was 70%. The ring closure, conversion by HPLC ([12]; 21-membered ring) was 88% and the ring closure, conversion by HPLC ([13]; 21-membered ring) was 92%.

`COC(=O)[C@@H]1CSCC=CCSC[C@H](NC(=O)OC(C)(C)C)C(=O)N[C@@H](CC(C)C)C(=O)N[C@@H](CC(C)C)C(=O)N1` [Boc-Cys(S-allyl)-Leu-Leu-Cys(S-allyl)-OMe] showed a ring closure, isolated yield [1, 17] of 77%, a ring closure, isolated yield [2, 17] of 81% and a ring closure, isolated yield [3, 17] of 79%. The ring closure, isolated yield [4, 17] was 83%, the ring closure, isolated yield [5, 17] was 42% and the ring closure, isolated yield [6, 17] was 40%. For the same compound, the ring closure, isolated yield [7, 17] was 33%.

`COC(=O)[C@@H]1CCC=CCCOc2ccc(cc2)C[C@H](NC(=O)OC(C)(C)C)C(=O)N[C@@H](CC(C)C)C(=O)N1` [Boc-Tyr(O-homoallyl)-Leu-homoallylGly-OMe] gave a ring closure, isolated yield [1, 18] of 68%, a ring closure, isolated yield [2, 18] of 77% and a ring closure, isolated yield [3, 18] of 70%. For the same compound, the ring closure, isolated yield [4, 18] was 66%, the ring closure, isolated yield [5, 18] was 44% and the ring closure, isolated yield [6, 18] was 26%. For the same compound, the ring closure, isolated yield [7, 18] was 24%.

For “Fmoc-Ile-Thr-Phe-S5-Asp-Leu-Leu-S5-Tyr-Tyr-Gly-Pro-NH-resin”, the ring closure, conversion by HPLC ([9]; 21-membered ring) was 90%, the ring closure, conversion by HPLC ([11]; 21-membered ring) was 75% and the ring closure, conversion by HPLC ([12]; 21-membered ring) was 81%. It also gave a ring closure, conversion by HPLC ([13]; 21-membered ring) of 80% and a ring closure, conversion by HPLC ([14]; 21-membered ring) of 70%.

Compound `C=CCCC[C@](C)(NC(=O)[C@H](CC(C)C)NC(=O)[C@H](CC(C)C)NC(=O)[C@H](CC(=O)O)NC(=O)[C@](C)(CCCC=C)NC(=O)[C@H](Cc1ccccc1)NC(=O)[C@@H](NC(=O)[C@@H](NC(=O)OCC1c2ccccc2-c2ccccc21)[C@@H](C)CC)[C@@H](C)O)C(=O)N[C@@H](Cc1ccc(O)cc1)C(=O)N[C@@H](Cc1ccc(O)cc1)C(=O)NCC(=O)N1CCC[C@H]1C(N)=O` [Fmoc-Ile-Thr-Phe-S5-Asp-Leu-Leu-S5-Tyr-Tyr-Gly-Pro-NH-resin] has a ring closure, conversion by HPLC ([8]; 21-membered ring) of 90%.

Compound “Fmoc-Gln-Ser-Gln-Gln-Thr-Phe-R8-Asn-Leu-Trp-Arg-Leu-Leu-S5-Gln-Asn-NH-resin” has a ring closure, conversion by HPLC ([9]; 33-membered ring) of 90%, a ring closure, conversion by HPLC ([10]; 33-membered ring) of 75% and a ring closure, conversion by HPLC ([11]; 33-membered ring) of 70%. The ring closure, conversion by HPLC ([13]; 33-membered ring) was 85% and the ring closure, conversion by HPLC ([14]; 33-membered ring) was 80%.

Work on `COC(=O)[C@@H]1CC=CC[C@H](NC(=O)OC(C)(C)C)C(=O)N2CCC[C@H]2C(=O)NCC(=O)N1` [Boc-allylGly-Pro-Gly-allylGly-OMe] yielded a ring closure, isolated yield [1, 19] of 37%, a ring closure, isolated yield [2, 19] of 48% and a ring closure, isolated yield [3, 19] of 41%. For the same compound, the ring closure, isolated yield [4, 19] was 36%, the ring closure, isolated yield [5, 19] was 20% and the ring closure, isolated yield [6, 19] was 17%. The ring closure, isolated yield [7, 19] was 18%.

Work on `C=CCCCCCC[C@@](C)(NC(=O)[C@H](CC(N)=O)NC(=O)[C@@H](NC(=O)OCC1c2ccccc2-c2ccccc21)C(C)C)C(=O)N[C@@H](CCCCN)C(=O)N[C@@H](CCCCN)C(=O)N[C@H](C(=O)N[C@@H](CC(C)C)C(=O)NCC(=O)N[C@@H](CCCCN)C(=O)N[C@@](C)(CCCC=C)C(=O)N[C@H](C(=O)N[C@@H](CCCCN)C(=O)N[C@H](C(=O)N[C@H](C(=O)N[C@@H](CCCCN)C(N)=O)C(C)C)C(C)C)[C@@H](C)CC)[C@@H](C)CC` yielded a ring closure, conversion by HPLC ([8]; 33-membered ring) of 88%.

In the case of “Fmoc-Val-Asn-R8-Lys-Lys-Ile-Leu-Gly-Lys-S5-Ile-Lys-Val-Val-Lys-NH-resin”, the ring closure, conversion by HPLC ([9]; 33-membered ring) is reported as 94%, the ring closure, conversion by HPLC ([10]; 33-membered ring) is reported as 70% and the ring closure, conversion by HPLC ([11]; 33-membered ring) is reported as 55%. For the same compound, the ring closure, conversion by HPLC ([12]; 33-membered ring) was 80%, the ring closure, conversion by HPLC ([13]; 33-membered ring) was 85% and the ring closure, conversion by HPLC ([14]; 33-membered ring) was 60%.

For `C=CCCCCCC[C@@](C)(NC(=O)[C@H](Cc1ccccc1)NC(=O)[C@@H](NC(=O)[C@H](CCC(N)=O)NC(=O)[C@H](CCC(N)=O)NC(=O)[C@H](CO)NC(=O)[C@H](CCC(N)=O)NC(=O)OCC1c2ccccc2-c2ccccc21)[C@@H](C)O)C(=O)N[C@@H](CC(N)=O)C(=O)N[C@@H](CC(C)C)C(=O)N[C@@H](Cc1c[nH]c2ccccc12)C(=O)N[C@@H](CCCNC(=N)N)C(=O)N[C@@H](CC(C)C)C(=O)N[C@@H](CC(C)C)C(=O)N[C@@](C)(CCCC=C)C(=O)N[C@@H](CCC(N)=O)C(=O)N[C@@H](CC(N)=O)C(N)=O`, the ring closure, conversion by HPLC ([8]; 33-membered ring) was 92%.

Compound `COC(=O)[C@@H]1CC=CCCOc2ccc(cc2)C[C@H](NC(=O)OC(C)(C)C)C(=O)N[C@@H](CC(C)C)C(=O)N1` [Boc-Tyr(O-homoallyl)-Leu-allylGly-OMe] has a ring closure, isolated yield [1, 20] of 54%, a ring closure, isolated yield [2, 20] of 61% and a ring closure, isolated yield [3, 20] of 55%. It also gave a ring closure, isolated yield [4, 20] of 60%, a ring closure, isolated yield [5, 20] of 24% and a ring closure, isolated yield [6, 20] of 21%. The ring closure, isolated yield [7, 20] was 17%.

`CC(C)C[C@@H]1NC(=O)[C@@H](NC(=O)OC(C)(C)C)CC=CC[C@@H](C(=O)OCc2ccccc2)NC(=O)[C@H](CC(C)C)NC1=O` [Boc-allylGly-Leu-Leu-allylGly-OBn] gave a ring closure, isolated yield [1, 21] of 70%, a ring closure, isolated yield [2, 21] of 74% and a ring closure, isolated yield [3, 21] of 61%. It also gave a ring closure, isolated yield [4, 21] of 64%, a ring closure, isolated yield [5, 21] of 39% and a ring closure, isolated yield [6, 21] of 32%. The ring closure, isolated yield [7, 21] was 30%.

For `COC(=O)[C@@H]1COCC=CCOC[C@H](NC(=O)OC(C)(C)C)C(=O)N[C@@H](CC(C)C)C(=O)N[C@@H](CC(C)C)C(=O)N1` [Boc-Ser(O-allyl)-Leu-Leu-Ser(O-allyl)-OMe], the ring closure, isolated yield [1, 22] was 73%, the ring closure, isolated yield [2, 22] was 76% and the ring closure, isolated yield [4, 22] was 74%. The ring closure, isolated yield [5, 22] was 44%, the ring closure, isolated yield [6, 22] was 36% and the ring closure, isolated yield [7, 22] was 34%.

Reference: article PMC4618480
